From PMC12455130, “Multifunctional molecular agent for tau-targeted combinational therapy of Alzheimer’s disease” (The Journal of Biological Chemistry, 2025)

How the values were obtained:
Assay type in all cases: biochemical
tau peptide R3 = biological target: T1, tau peptide R3 (Homo sapiens, UniProt P10636); test: ThS assay, Cu2+-promoted heparin-induced R3 aggregation; conditions: R3 15 μM, Cu2+ 3.8 μM, compound 10 μM, heparin 3.8 μM, 3 h
T1 construct: R3 (^306VQIVYK PVDLSK VTSKCG SLGNIH HKPGGG Q^336) and rabbit anti-tau antibody were purchased from MuJin; purchased MuJin
Excerpt: Metal ions, especially Cu^2+, are believed to be highly compatible with cysteine residues of tau peptide as a coordination center ([26]). Accompanied by the formation of intermolecular S–Cu–S bridging coordination bond, or intermolecular disulfide bond, these metal ions have been proven to promote tau aggregation ([27]). After confirming that 4GA and 2GA can effectively remove copper ions through coordination, we further explore their effects on R3 aggregation under the promotion of Cu^2+. […] Heparin was used to initiate the aggregation ([15]). […] As a comparison, the effects of the precursor compounds: 4ME, 3ME, 2ME, and 1ME, on Cu^2+-promoted R3 aggregation were also examined (Fig. S15).
Figure 5 Kinetic curves and TEM image of R3 aggregation with 4GA or 2GA.A, kinetic curves of the R3 (15 μM) aggregation monitored by ThS fluorescence assay in different conditions. B, ThS fluorescence intensity of R3 (15 μM) incubated for 3 h in different conditions. C, TEM image of R3 fibrils in different conditions. Negatively stained with uranyl acetate. Scale bar represents 200 nm. Final concentrations of R3, Cu^2+, and inhibitors are 15, 3.8, and 10 μM, respectively. All aggregations were initiated by heparin (3.8 μM). 2GA, (4,10-dimethyl-1,4,7,10-tetraazacyclododecane-1,7-diyl)bis((3,4,5-trihydroxyphenyl)methanone); 4GA, (1,4,7,10-tetraazacyclododecane-1,4,7,10-tetrayl)tetrakis((3,4,5-trihydroxyphenyl)methanone); TEM, transmission electron microscopy; ThS, thioflavin S.
The promotion of Cu^2+ on R3 aggregation was also inspected, similar to the aforementioned operation, unless that 3.8 μM Cu^2+ was also included, and using 50 mM Hepes (pH 7.4) as the buffer solution.
Fig. S15 ThS fluorescence intensity of R3 (15 µM) incubated for 3 h. Final concentrations of R3, Cu^2+, and compounds are 15, 3.8 and 10 µM, respectively. All aggregations were initiated by heparin (3.8 µM).

R3 fibrils = biological target: T2, R3 fibrils (Homo sapiens, UniProt P10636); test: TEM of Cu2+-promoted R3 fibrils; conditions: R3 15 μM, Cu2+ 3.8 μM, heparin 3.8 μM, compound 10 μM, Hepes pH 7.4
T2 construct: R3 (^306VQIVYK PVDLSK VTSKCG SLGNIH HKPGGG Q^336) and rabbit anti-tau antibody were purchased from MuJin; purchased MuJin
Protocol: However, the influence of 4ME or GA on Cu^2+-promoted R3 aggregation was small, because these compounds could only suppress Cu^2+ promotion effect; their effect on R3 self-aggregation was almost negligible.
For detecting the inhibitory efficiency of inhibitors, 15 μM R3, 3.8 μM heparin, and 4GA/2GA/4ME/GA (0, 10, and 40 μM) in 50 mM Tris–HCl buffer (pH 7.4) was incubated at 37 °C for 3 h, respectively. For exploring the effect of Cu^2+ on R3 aggregation, 15 μM R3, 3.8 μM heparin was mixed in the presence or the absence of 3.8 μM Cu^2+ in 50 mM Hepes buffer (pH 7.4). Then, 10 μM 4GA/2GA/4ME/GA was added to the solution. After 3 h incubation, 10 μl of each solution was applied on a carbon support membrane, followed by 10 μl of 2% uranyl acetate, and dried at room temperature. The operation was carried out on transmission electron microscope (JEM-2100, provieded by JEOL).

[1] = tested on: ROS generated by R3 + Cu^2+; test: ROS in solution, DCFH fluorescent probe
Excerpt: In this experiment, the fluorescent probe, 2′,7′-dichlorodihydrofluorescein (DCFH), was used to detect the formation of ROS in solution.
Figure 7 The scavenge ability of 4GA and 2GA on ROS.A, time-dependent experiment for monitoring ROS level in solution at different conditions, using the fluorescent probe 2′,7′-dichlorodihydrofluorescein (DCFH). B, ROS levels in SK-N-SH cells treated with different conditions detected by the fluorescent probe of DCFH in flow cytometry. The data were reported as the mean ± SD, n = 3. Statistical analysis was performed using a one-way ANOVA test, ∗p < 0.05, ∗∗p < 0.01, and ∗∗∗p < 0.001 (n = 3). C, confocal laser scanning microscopy (CLSM) analysis of the intracellular ROS level stained with DCFH. Scale bar represents 12.5 μm. 2GA, (4,10-dimethyl-1,4,7,10-tetraazacyclododecane-1,7-diyl)bis((3,4,5-trihydroxyphenyl)methanone); 4GA, (1,4,7,10-tetraazacyclododecane-1,4,7,10-tetrayl)tetrakis((3,4,5-trihydroxyphenyl)methanone); ROS, reactive oxygen species.

T2 sequence (P10636 623-653 limits assumed): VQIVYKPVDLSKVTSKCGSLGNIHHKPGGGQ
T1 sequence (P10636 623-653 limits assumed): as above

SMILES | ThS fluorescence intensity of R3 aggregation in the presence of Cu2+ (tau peptide R3) | morphology of Cu2+-promoted R3 fibrils (TEM) (R3 fibrils) | DCFH fluorescence (ROS) in R3 + Cu2+ solution [1]
O=C(c1cc(O)c(O)c(O)c1)N1CCN(C(=O)c2cc(O)c(O)c(O)c2)CCN(C(=O)c2cc(O)c(O)c(O)c2)CCN(C(=O)c2cc(O)c(O)c(O)c2)CC1 [4GA, (1,4,7,10-tetraazacyclododecane-1,4,7,10-tetrayl)tetrakis((3,4,5-trihydroxyphenyl)methanone)] | dropped dramatically, to a level lower than the case of R3 aggregation in the absence of Cu^2+ | the resulting filaments become sparse and small | returning to the level observed in the R3 solution without Cu^2+
CN1CCN(C)CCN(C)CCN(C)CC1 [4ME, 1,4,7,10-tetramethyl-1,4,7,10-tetraazacyclododecane, reference compound] | only to a level close to the case of R3 aggregation in the absence of Cu^2+ | small | –
O=C(O)c1cc(O)c(O)c(O)c1 [GA, gallic acid, reference compound] | – | small | could also quench the DCFH fluorescence
CN1CCN(C(=O)c2cc(O)c(O)c(O)c2)CCN(C)CCN(C(=O)c2cc(O)c(O)c(O)c2)CC1 [2GA, (4,10-dimethyl-1,4,7,10-tetraazacyclododecane-1,7-diyl)bis((3,4,5-trihydroxyphenyl)methanone)] | dropped dramatically, to a level lower than the case of R3 aggregation in the absence of Cu^2+ | the resulting filaments become sparse and small | returning to the level observed in the R3 solution without Cu^2+
